Consider 14 compounds from ChEMBL document CHEMBL6103586, “Optimization of pyrazole/1,2,4-triazole as dual EGFR/COX-2 inhibitors: Design, synthesis, anticancer potential, apoptosis induction and cell cycle analysis” (Eur J Med Chem, 2025).

The test system of assay [1] is HT-29. As to the kind of experiment: Cytotoxicity against human HT-29 cells assessed as cell growth inhibition measured after 24 hrs by spectrophotometry based MTT assay. The format is functional. The settings on record: HT-29, 24 h.
For assay [2], the system named is A549. As to the kind of experiment: Cytotoxicity against human A549 cells assessed as cell growth inhibition measured after 24 hrs by spectrophotometry based MTT assay. The format is functional. The settings on record: A549, 24 h.
The subject of assay [3] is MCF7. As to the kind of experiment: Cytotoxicity against human MCF7 cells assessed as cell growth inhibition measured after 24 hrs by spectrophotometry based MTT assay. The format is functional. The settings on record: MCF7, 24 h.
Assay [4] deals with MCF7. In words: Induction of apoptosis in human MCF7 cells assessed as necrotic cells at 1.207 uM incubated for 24 hrs by Annexin V-FITC/PI staining based flow cytometry analysis (reference value: 2.04%). In kind it is functional.
For assay [5], the system named is MCF7. In words: Induction of cell cycle arrest in human MCF-7 cells assessed as accumulation of cells at S phase cells at 1.207 uM incubated for 24 hrs by propidium iodide based flow cytometry analysis (reference value: 23.88%). In kind it is functional.
Assay [6] concerns the target Prostaglandin G/H synthase 1 (Homo sapiens, UniProt P23219).
Description: Inhibition of COX-1 (unknown origin) using arachidonic acid as substrate by fluorescence based analysis
Assay [7] relates to MCF7. As to the kind of experiment: Induction of apoptosis in human MCF7 cells assessed as late apoptotic cells at 1.207 uM incubated for 24 hrs by Annexin V-FITC/PI staining based flow cytometry analysis (reference value: 0.11%). The format is functional.
Assay [8] concerns MCF7. In words: Induction of apoptosis in human MCF7 cells assessed as early apoptotic cells at 1.207 uM incubated for 24 hrs by Annexin V-FITC/PI staining based flow cytometry analysis (reference value: 0.36%). In kind it is functional.
The test system of assay [9] is MCF7. In words: Induction of cell cycle arrest in human MCF-7 cells assessed as accumulation of cells at G0/G1 phase cells at 1.207 uM incubated for 24 hrs by propidium iodide based flow cytometry analysis (reference value: 66.25%). In kind it is functional.
Assay [10] has as its system MCF7. As to the kind of experiment: Induction of apoptosis in human MCF7 cells assessed as total apoptotic cells at 1.207 uM incubated for 24 hrs by Annexin V-FITC/PI staining based flow cytometry analysis (reference value: 2.51%). The format is functional.
The target of assay [11] is Epidermal growth factor receptor (Homo sapiens, UniProt P00533, T790M). As to the kind of experiment: Inhibition of human EGFR T790M mutant by Kinase-Glo assay.
Epidermal growth factor receptor (Homo sapiens, UniProt P00533, T790M), sequence (P00533 25-1210 T790M limits assumed): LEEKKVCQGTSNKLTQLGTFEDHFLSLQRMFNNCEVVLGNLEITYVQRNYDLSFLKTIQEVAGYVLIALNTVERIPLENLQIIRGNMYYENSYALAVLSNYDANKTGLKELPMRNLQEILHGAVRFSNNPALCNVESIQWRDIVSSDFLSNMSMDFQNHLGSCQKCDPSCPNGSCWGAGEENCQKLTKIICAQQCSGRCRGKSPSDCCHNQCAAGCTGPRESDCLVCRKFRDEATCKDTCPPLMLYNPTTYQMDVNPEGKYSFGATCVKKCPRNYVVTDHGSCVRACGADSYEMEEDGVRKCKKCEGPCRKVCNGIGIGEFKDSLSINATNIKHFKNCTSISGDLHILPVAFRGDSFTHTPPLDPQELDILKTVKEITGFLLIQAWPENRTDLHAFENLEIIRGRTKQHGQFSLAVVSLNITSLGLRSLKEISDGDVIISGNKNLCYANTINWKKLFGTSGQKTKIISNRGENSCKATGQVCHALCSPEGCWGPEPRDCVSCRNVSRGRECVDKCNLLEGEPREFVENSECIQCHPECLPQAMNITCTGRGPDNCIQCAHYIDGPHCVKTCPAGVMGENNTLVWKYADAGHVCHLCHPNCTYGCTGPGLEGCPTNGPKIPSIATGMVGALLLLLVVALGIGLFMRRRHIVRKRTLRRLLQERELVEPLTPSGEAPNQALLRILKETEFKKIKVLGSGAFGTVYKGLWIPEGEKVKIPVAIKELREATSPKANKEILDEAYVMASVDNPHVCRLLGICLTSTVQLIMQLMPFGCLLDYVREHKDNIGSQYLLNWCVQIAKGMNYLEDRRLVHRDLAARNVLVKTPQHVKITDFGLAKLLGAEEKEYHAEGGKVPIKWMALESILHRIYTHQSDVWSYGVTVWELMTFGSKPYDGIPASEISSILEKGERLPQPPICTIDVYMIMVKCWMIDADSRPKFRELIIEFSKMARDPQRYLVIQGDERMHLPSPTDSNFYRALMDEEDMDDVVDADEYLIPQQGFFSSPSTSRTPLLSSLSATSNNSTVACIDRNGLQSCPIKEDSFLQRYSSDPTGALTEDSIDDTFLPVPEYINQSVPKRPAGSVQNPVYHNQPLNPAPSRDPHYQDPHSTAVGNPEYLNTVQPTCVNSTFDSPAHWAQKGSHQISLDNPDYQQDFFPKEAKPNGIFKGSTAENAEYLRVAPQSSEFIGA
The target in assay [12] is Epidermal growth factor receptor (Homo sapiens, UniProt P00533). As to the kind of experiment: Inhibition of human wild-type EGFR by Kinase-Glo assay.
Epidermal growth factor receptor (Homo sapiens, UniProt P00533), sequence (P00533 whole entry): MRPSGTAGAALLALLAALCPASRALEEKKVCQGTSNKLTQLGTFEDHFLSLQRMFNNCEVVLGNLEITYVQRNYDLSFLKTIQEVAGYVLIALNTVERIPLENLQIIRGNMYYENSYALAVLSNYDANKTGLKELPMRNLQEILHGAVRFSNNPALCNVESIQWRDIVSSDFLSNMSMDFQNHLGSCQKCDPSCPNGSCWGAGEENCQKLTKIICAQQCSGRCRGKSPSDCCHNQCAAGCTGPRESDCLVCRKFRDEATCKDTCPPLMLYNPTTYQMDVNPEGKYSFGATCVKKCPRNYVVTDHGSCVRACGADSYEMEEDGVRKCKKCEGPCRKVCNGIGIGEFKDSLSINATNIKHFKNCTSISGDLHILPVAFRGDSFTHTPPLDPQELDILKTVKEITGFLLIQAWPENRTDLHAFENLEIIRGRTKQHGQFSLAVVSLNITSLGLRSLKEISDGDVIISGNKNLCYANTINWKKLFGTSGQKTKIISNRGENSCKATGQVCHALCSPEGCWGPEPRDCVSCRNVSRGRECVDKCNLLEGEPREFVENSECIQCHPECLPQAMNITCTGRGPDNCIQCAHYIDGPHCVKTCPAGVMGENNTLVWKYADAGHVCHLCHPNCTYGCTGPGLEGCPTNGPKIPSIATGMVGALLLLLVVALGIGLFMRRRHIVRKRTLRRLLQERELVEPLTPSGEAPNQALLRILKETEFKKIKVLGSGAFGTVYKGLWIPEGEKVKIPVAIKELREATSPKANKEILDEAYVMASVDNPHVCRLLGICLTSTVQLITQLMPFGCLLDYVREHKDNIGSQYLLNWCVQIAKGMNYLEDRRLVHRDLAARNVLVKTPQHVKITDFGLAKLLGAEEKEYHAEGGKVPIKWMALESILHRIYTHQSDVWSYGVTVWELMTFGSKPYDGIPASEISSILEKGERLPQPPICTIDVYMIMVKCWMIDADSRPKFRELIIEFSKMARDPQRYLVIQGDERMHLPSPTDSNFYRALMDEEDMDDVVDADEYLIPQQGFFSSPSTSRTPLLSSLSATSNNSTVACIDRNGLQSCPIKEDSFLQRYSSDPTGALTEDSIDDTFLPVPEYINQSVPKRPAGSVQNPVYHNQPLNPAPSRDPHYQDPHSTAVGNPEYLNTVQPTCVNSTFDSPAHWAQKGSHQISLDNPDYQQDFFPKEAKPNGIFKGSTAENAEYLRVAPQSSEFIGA
The test system of assay [13] is MCF7. In words: Induction of cell cycle arrest in human MCF-7 cells assessed as accumulation of cells at G2/M phase cells at 1.207 uM incubated for 24 hrs by propidium iodide based flow cytometry analysis (reference value: 9.87%). The format is functional.

Prostaglandin G/H synthase 1, sequence (P23219 whole entry): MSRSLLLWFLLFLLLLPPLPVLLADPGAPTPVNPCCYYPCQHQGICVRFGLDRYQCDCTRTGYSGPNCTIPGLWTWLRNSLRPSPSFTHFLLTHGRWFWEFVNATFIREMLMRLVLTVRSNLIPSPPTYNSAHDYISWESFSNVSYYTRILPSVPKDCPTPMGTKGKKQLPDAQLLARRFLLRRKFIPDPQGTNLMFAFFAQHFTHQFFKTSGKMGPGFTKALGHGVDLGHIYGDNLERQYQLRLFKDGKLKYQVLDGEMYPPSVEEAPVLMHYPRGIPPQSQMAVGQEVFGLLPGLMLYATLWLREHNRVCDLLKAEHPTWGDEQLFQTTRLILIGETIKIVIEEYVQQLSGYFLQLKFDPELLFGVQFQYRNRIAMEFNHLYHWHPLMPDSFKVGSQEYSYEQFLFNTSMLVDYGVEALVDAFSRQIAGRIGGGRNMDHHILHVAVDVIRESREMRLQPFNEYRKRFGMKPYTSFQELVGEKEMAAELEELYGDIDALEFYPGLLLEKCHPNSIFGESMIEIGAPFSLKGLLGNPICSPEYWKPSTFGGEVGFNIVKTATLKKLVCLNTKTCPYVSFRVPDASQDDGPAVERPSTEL

Turning to `Cc1c(-c2nnc(S)n2N=Cc2ccc([N+](=O)[O-])cc2)cnn1-c1ccc(S(C)(=O)=O)cc1`, the 50% inhibitory concentration (IC50) is 13 µM in assay [1], 4.89 µM in assay [2] and 4.95 µM in [3].

`Cc1c(-c2nnc(S)n2N=Cc2ccc(F)cc2)cnn1-c1ccc(S(C)(=O)=O)cc1`: the Activity in assay [4] is given as 6.29%; in assay [5], 13.21%; in [7] it was 9.57%; in assay [8] it was 22.81%; in [9], 47.64%; in [10], 38.67%. In [13], the Activity came to 39.15%. The IC50 in [1] was 5.14 µM; in assay [2], 14.8 µM; in assay [6] it was 20.1 µM; in [3] it was 1.2 µM; in [11], 0.076 µM; in [12], 0.121 µM.

Consider `COc1cccc(C=Nn2c(S)nnc2-c2cnn(-c3ccccc3)c2C)c1OC`, for which the IC50 is 73.7 µM in [1], 14.8 µM in assay [2] and 41.6 µM in assay [3].

Regarding `Cc1c(-c2nnc(S)n2N=Cc2ccc(N(C)C)cc2)cnn1-c1ccccc1`, the IC50 in assay [1] is 2.93 µM; in assay [2], 3.78 µM; in assay [6], 36 µM; in assay [3], 7.46 µM; in assay [11], 0.764 µM; in assay [12], 0.423 µM.

In the case of `Cc1c(-c2nnc(S)n2N=Cc2ccc(N(C)C)cc2)cnn1-c1ccc(S(C)(=O)=O)cc1`, the IC50 stood at 13.9 µM in assay [1], 31.8 µM in assay [2] and 10.5 µM in [3].

As for `COc1cc(C=Nn2c(S)nnc2-c2cnn(-c3ccccc3)c2C)cc(OC)c1OC`, the results for the half-inhibitory concentration (IC50) in [1], in assay [2] and in [3] were 22.5 µM, 17.2 µM and 33.2 µM, respectively.

`C=CC(=O)Nc1cc(Nc2nccc(-c3cn(C)c4ccccc34)n2)c(OC)cc1N(C)CCN(C)C` [OSIMERTINIB]: the values for the concentration for half-maximal inhibition (IC50) in assay [1], in assay [2] and in assay [3] were 0.75 µM, 1.66 µM and 3.45 µM, respectively.

Regarding `Cc1c(-c2nnc(S)n2N=Cc2ccc(F)cc2)cnn1-c1ccccc1`, the 50% inhibitory concentration (IC50) in assay [1] amounted to 12 µM; in [2], 7.27 µM; in assay [3], 16.9 µM.

In the case of `COc1cc(C=Nn2c(S)nnc2-c2cnn(-c3ccc(S(C)(=O)=O)cc3)c2C)cc(OC)c1OC`, the IC50 in assay [1] was found to be 51.5 µM; in [2], 35.9 µM; in assay [3], 48.5 µM.

Turning to `COc1ccc(C=Nn2c(S)nnc2-c2cnn(-c3ccccc3)c2C)cc1OC`, the concentration for half-maximal inhibition (IC50) in assay [1] was 13.1 µM; in assay [2] it was 18.6 µM; in assay [3], 20.2 µM.

As to `COc1cccc(C=Nn2c(S)nnc2-c2cnn(-c3ccc(S(C)(=O)=O)cc3)c2C)c1OC`, the values for the half-maximal inhibitory concentration (IC50) in [1], in assay [2] and in assay [3] were 28.1 µM, 13.5 µM and 22 µM, respectively.

Regarding `Cc1ccc(-c2cc(C(F)(F)F)nn2-c2ccc(S(N)(=O)=O)cc2)cc1` [CELECOXIB], the IC50 was determined as 41.5 µM in [1], 21.7 µM in assay [2] and 16.5 µM in assay [3].

For `COc1ccc(C=Nn2c(S)nnc2-c2cnn(-c3ccc(S(C)(=O)=O)cc3)c2C)cc1OC`, the half-inhibitory concentration (IC50) amounted to 9.23 µM in [1]; 2.38 µM in assay [2]; 14.5 µM in [6]; 5.14 µM in assay [3]; 0.135 µM in [11]; 0.216 µM in [12].

Consider `Cc1c(-c2nnc(S)n2N=Cc2ccc([N+](=O)[O-])cc2)cnn1-c1ccccc1`, for which the results for the IC50 in assay [1], in assay [2] and in [3] were 10.6 µM, 6.38 µM and 12.8 µM, respectively.
